Test results: ChEMBL document CHEMBL5154747, “Discovery of new carbonic anhydrase IX inhibitors as anticancer agents by toning the hydrophobic and hydrophilic rims of the active site to encounter the dual-tail approach” (Eur J Med Chem, 2022)

Columns and labels:
Carbonic anhydrase 9 = Carbonic anhydrase 9 (Homo sapiens, UniProt Q16790); assay: Inhibition of recombinant human CA 9 preincubated for 15 mins by phenol red dye based stopped flow CO2 hydration assay
CCRF-CEM = assay: Anticancer activity against human CCRF-CEM cells assessed as cell growth inhibition at 10 uM incubated for 48 hrs by SRB assay relative to control; format: functional; conditions: read-out: GI
SR = assay: Anticancer activity against human SR cells assessed as cell growth inhibition at 10 uM incubated for 48 hrs by SRB assay relative to control; format: functional; conditions: read-out: GI
NCI-H226 = assay: Anticancer activity against human NCI-H226 cells assessed as cell growth inhibition at 10 uM incubated for 48 hrs by SRB assay relative to control; format: functional; conditions: read-out: GI
NCI-H460 = assay: Anticancer activity against human NCI-H460 cells assessed as cell growth inhibition at 10 uM incubated for 48 hrs by SRB assay relative to control; format: functional; conditions: read-out: GI
HCC 2998 [1] = assay: Anticancer activity against human HCC 2998 cells assessed as cell growth inhibition at 10 uM incubated for 48 hrs by SRB assay relative to control; format: functional; conditions: read-out: GI
HCT-116 = assay: Anticancer activity against human HCT-116 cells assessed as cell growth inhibition at 10 uM incubated for 48 hrs by SRB assay relative to control; format: functional; conditions: read-out: GI
HCT-15 [2] = assay: Anticancer activity against human HCT-15 cells assessed as cell growth inhibition at 10 uM incubated for 48 hrs by SRB assay relative to control; format: functional; conditions: read-out: GI
HT-29 [3] = assay: Anticancer activity against human HT-29 cells assessed as cell growth inhibition at 10 uM incubated for 48 hrs by SRB assay relative to control; format: functional; conditions: read-out: GI
SF-539 = assay: Anticancer activity against human SF-539 cells assessed as cell growth inhibition at 10 uM incubated for 48 hrs by SRB assay relative to control; format: functional; conditions: read-out: GI
U-251 = assay: Anticancer activity against human U-251 cells assessed as cell growth inhibition at 10 uM incubated for 48 hrs by SRB assay relative to control; format: functional; conditions: read-out: GI
LOX IMVI = assay: Anticancer activity against human LOX IMVI cells assessed as cell growth inhibition at 10 uM incubated for 48 hrs by SRB assay relative to control; format: functional; conditions: read-out: GI
UACC-62 = assay: Anticancer activity against human UACC-62 cells assessed as cell growth inhibition at 10 uM incubated for 48 hrs by SRB assay relative to control; format: functional; conditions: read-out: GI
OVCAR-5 = assay: Anticancer activity against human OVCAR-5 cells assessed as cell growth inhibition at 10 uM incubated for 48 hrs by SRB assay relative to control; format: functional; conditions: read-out: GI
ACHN [4] = assay: Anticancer activity against human ACHN cells assessed as cell growth inhibition at 10 uM incubated for 48 hrs by SRB assay relative to control; format: functional; conditions: read-out: GI
SN12C = assay: Anticancer activity against human SN12C cells assessed as cell growth inhibition at 10 uM incubated for 48 hrs by SRB assay relative to control; format: functional; conditions: read-out: GI
TK-10 [5] = assay: Anticancer activity against human TK-10 cells assessed as cell growth inhibition at 10 uM incubated for 48 hrs by SRB assay relative to control; format: functional; conditions: read-out: GI
UO-31 [6] = assay: Anticancer activity against human UO-31 cells assessed as cell growth inhibition at 10 uM incubated for 48 hrs by SRB assay relative to control; format: functional; conditions: read-out: GI
PC-3 [7] = assay: Anticancer activity against human PC-3 cells assessed as cell growth inhibition at 10 uM incubated for 48 hrs by SRB assay relative to control; format: functional; conditions: read-out: GI
DU-145 = assay: Anticancer activity against human DU-145 cells assessed as cell growth inhibition at 10 uM incubated for 48 hrs by SRB assay relative to control; format: functional; conditions: read-out: GI
MCF7 [8] = assay: Anticancer activity against human MCF7 cells assessed as cell growth inhibition at 10 uM incubated for 48 hrs by SRB assay relative to control; format: functional; conditions: read-out: GI
MOLT-4 = assay: Anticancer activity against human MOLT-4 cells assessed as cell growth inhibition incubated for 48 hrs by SRB assay; format: functional; conditions: for CC50: read-out: LC50 (the source's name)
A549 = assay: Anticancer activity against human A549 cells assessed as cell growth inhibition incubated for 48 hrs by SRB assay; format: functional
HCC 2998 [9] = assay: Anticancer activity against human HCC 2998 cells assessed as cell growth inhibition incubated for 48 hrs by SRB assay; format: functional; conditions: for CC50: read-out: LC50 (the source's name)
HCT-15 [10] = assay: Anticancer activity against human HCT-15 cells assessed as cell growth inhibition incubated for 48 hrs by SRB assay; format: functional; conditions: for CC50: read-out: LC50 (the source's name)
HT-29 [11] = assay: Anticancer activity against human HT-29 cells assessed as cell growth inhibition incubated for 48 hrs by SRB assay; format: functional; conditions: for CC50: read-out: LC50 (the source's name)
SF-295 = assay: Anticancer activity against human SF-295 cells assessed as cell growth inhibition incubated for 48 hrs by SRB assay; format: functional; conditions: for CC50: read-out: LC50 (the source's name)
SNB-75 = assay: Anticancer activity against human SNB-75 cells assessed as cell growth inhibition incubated for 48 hrs by SRB assay; format: functional
SK-MEL-28 = assay: Anticancer activity against human SK-MEL-28 cells assessed as cell growth inhibition incubated for 48 hrs by SRB assay; format: functional; conditions: for CC50: read-out: LC50 (the source's name)
SK-MEL-5 = assay: Anticancer activity against human SK-MEL-5 cells assessed as cell growth inhibition incubated for 48 hrs by SRB assay; format: functional
IGROV-1 = assay: Anticancer activity against human IGROV-1 cells assessed as cell growth inhibition incubated for 48 hrs by SRB assay; format: functional; conditions: for CC50: read-out: LC50 (the source's name)
NCI/ADR-RES = assay: Anticancer activity against human NCI/ADR-RES cells assessed as cell growth inhibition incubated for 48 hrs by SRB assay; format: functional; conditions: for CC50: read-out: LC50 (the source's name)
ACHN [12] = assay: Anticancer activity against human ACHN cells assessed as cell growth inhibition incubated for 48 hrs by SRB assay; format: functional
TK-10 [13] = assay: Anticancer activity against human TK-10 cells assessed as cell growth inhibition incubated for 48 hrs by SRB assay; format: functional; conditions: for CC50: read-out: LC50 (the source's name)
UO-31 [14] = assay: Anticancer activity against human UO-31 cells assessed as cell growth inhibition incubated for 48 hrs by SRB assay; format: functional; conditions: for CC50: read-out: LC50 (the source's name)
PC-3 [15] = assay: Anticancer activity against human PC-3 cells assessed as cell growth inhibition incubated for 48 hrs by SRB assay; format: functional; conditions: for CC50: read-out: LC50 (the source's name)
MCF7 [16] = assay: Anticancer activity against human MCF7 cells assessed as cell growth inhibition incubated for 48 hrs by SRB assay; format: functional
BT-549 = assay: Anticancer activity against human BT-549 cells assessed as cell growth inhibition incubated for 48 hrs by SRB assay; format: functional; conditions: for CC50: read-out: LC50 (the source's name)
T47D = assay: Anticancer activity against human T47D cells assessed as cell growth inhibition incubated for 48 hrs by SRB assay; format: functional
MDA-MB-468 = assay: Anticancer activity against human MDA-MB-468 cells assessed as cell growth inhibition incubated for 48 hrs by SRB assay; format: functional; conditions: for CC50: read-out: LC50 (the source's name)

## NS(=O)(=O)c1ccc(Nc2nc(N/N=C/c3ccccn3)nc(Nc3ccccc3)n2)cc1
Carbonic anhydrase 9
  Ki: 27.2 nM
CCRF-CEM
  inhibition of growth at 10 µM: 94%
SR
  inhibition of growth at 10 µM: 87%
NCI-H226
  inhibition of growth at 10 µM: 149%
NCI-H460
  inhibition of growth at 10 µM: 96%
HCC 2998 [1]
  inhibition of growth at 10 µM: 174%
HCT-116
  inhibition of growth at 10 µM: 129%
HCT-15 [2]
  inhibition of growth at 10 µM: 82%
HT-29 [3]
  inhibition of growth at 10 µM: 93%
SF-539
  inhibition of growth at 10 µM: 142%
U-251
  inhibition of growth at 10 µM: 155%
LOX IMVI
  inhibition of growth at 10 µM: 143%
UACC-62
  inhibition of growth at 10 µM: 149%
OVCAR-5
  inhibition of growth at 10 µM: 90%
ACHN [4]
  inhibition of growth at 10 µM: 82%
SN12C
  inhibition of growth at 10 µM: 97%
TK-10 [5]
  inhibition of growth at 10 µM: 97%
UO-31 [6]
  inhibition of growth at 10 µM: 82%
PC-3 [7]
  inhibition of growth at 10 µM: 107%
DU-145
  inhibition of growth at 10 µM: 95%
MCF7 [8]
  inhibition of growth at 10 µM: 98%
MOLT-4
  GI50: 430 nM
  CC50: > 100000 nM
A549
  GI50: 2290 nM
  LC50: > 100000 nM
HCC 2998 [9]
  GI50: 650 nM
  CC50: > 100000 nM
HCT-15 [10]
  GI50: 1450 nM
  CC50: > 100000 nM
HT-29 [11]
  GI50: 2150 nM
  CC50: > 100000 nM
SF-295
  GI50: 1400 nM
  CC50: > 100000 nM
SNB-75
  GI50: 1320 nM
  LC50 (concentration killing 50% of cells): 5710 nM
SK-MEL-28
  GI50: 750 nM
  CC50: 6190 nM
SK-MEL-5
  GI50: 780 nM
  LC50: 4710 nM
IGROV-1
  GI50: 790 nM
  CC50: > 100000 nM
NCI/ADR-RES
  GI50: 2750 nM
  CC50: > 100000 nM
ACHN [12]
  GI50: 1120 nM
TK-10 [13]
  GI50: 1190 nM
  CC50: > 100000 nM
UO-31 [14]
  GI50: 1500 nM
  CC50: 89500 nM
PC-3 [15]
  GI50: 690 nM
  CC50: > 100000 nM
MCF7 [16]
  GI50: 1100 nM
  LC50: 6800 nM
BT-549
  GI50: 890 nM
  CC50: > 100000 nM
T47D
  GI50: 470 nM
  LC50: > 100000 nM
MDA-MB-468
  GI50: 310 nM
  CC50: > 100000 nM

## NS(=O)(=O)c1ccc(Nc2nc(N/N=C/c3ccc(C(F)(F)F)cc3)nc(Nc3ccccc3)n2)cc1
Carbonic anhydrase 9
  Ki: 29.7 nM
CCRF-CEM
  inhibition of growth at 10 µM: 88%
SR
  inhibition of growth at 10 µM: 92%
NCI-H226
  inhibition of growth at 10 µM: 63%
NCI-H460
  inhibition of growth at 10 µM: 85%
HCC 2998 [1]
  inhibition of growth at 10 µM: 46%
HCT-116
  inhibition of growth at 10 µM: 90%
HCT-15 [2]
  inhibition of growth at 10 µM: 68%
HT-29 [3]
  inhibition of growth at 10 µM: 88%
SF-539
  inhibition of growth at 10 µM: 76%
U-251
  inhibition of growth at 10 µM: 81%
LOX IMVI
  inhibition of growth at 10 µM: 90%
UACC-62
  inhibition of growth at 10 µM: 85%
OVCAR-5
  inhibition of growth at 10 µM: 32%
ACHN [4]
  inhibition of growth at 10 µM: 60%
SN12C
  inhibition of growth at 10 µM: 57%
TK-10 [5]
  inhibition of growth at 10 µM: 35%
UO-31 [6]
  inhibition of growth at 10 µM: 39%
PC-3 [7]
  inhibition of growth at 10 µM: 85%
DU-145
  inhibition of growth at 10 µM: 60%
MCF7 [8]
  inhibition of growth at 10 µM: 89%
MOLT-4
  GI50: 3060 nM
  CC50: > 100000 nM
A549
  GI50: 3110 nM
  LC50: 87200 nM
HCC 2998 [9]
  GI50: 2970 nM
  CC50: 46400 nM
HCT-15 [10]
  GI50: 2320 nM
  CC50: 52000 nM
HT-29 [11]
  GI50: 2440 nM
  CC50: 50100 nM
SF-295
  GI50: 1920 nM
  CC50: 8630 nM
SNB-75
  GI50: 2050 nM
  LC50 (concentration killing 50% of cells): 37500 nM
SK-MEL-28
  GI50: 2440 nM
  CC50: 26300 nM
SK-MEL-5
  GI50: 1740 nM
  LC50: 5820 nM
IGROV-1
  GI50: 2640 nM
  CC50: 53800 nM
NCI/ADR-RES
  GI50: 12300 nM
  CC50: > 100000 nM
ACHN [12]
  GI50: 2680 nM
ACHN [12]; read-out: LC50 (the source's name)
  CC50: 26500 nM
TK-10 [13]
  GI50: 3450 nM
  CC50: 33700 nM
UO-31 [14]
  GI50: 1880 nM
  CC50: 15700 nM
PC-3 [15]
  GI50: 2800 nM
  CC50: 78500 nM
MCF7 [16]
  GI50: 2180 nM
  LC50: 64800 nM
BT-549
  GI50: 2790 nM
  CC50: 37200 nM
T47D
  GI50: 2480 nM
  LC50: > 100000 nM
MDA-MB-468
  GI50: 1730 nM
  CC50: 8630 nM
